{"source": "patent US20240245633A1", "about": "“ROR Gamma Agonists as Enhancers of Protective Immunity” (University of Florida Research Foundation, Incorporated, priority 2015, published 2024)", "key": {"[1]": {"tested_on": "differentiated TH17 cells", "assay": "TH17 cell differentiation, flow cytometry", "assay_type": "cell-based, murine", "conditions": "murine TH17 cells", "experimental": "(§1) Using flow cytometery surface PD-1 expression was analyzed to determine if the decrease in gene expression of PD-1 correlates to a decrease of the protein on the cell surface, Cell: surface PD-1 expression was measured in murine and human T cell lines as well as in ex vivo differentiated murine TH17 cells. […] Next we examined the impact of compound treatment on differentiated murine TH17 cells. […] To determine if there was an increase in the active T cell population during TH17 cell differentiation, the population of CD62L^−PD1^− double negative cells was measured using flow cytometry. […] To determine if the effects of SR0987 on PD-1 expression would be observed in a human cell line, Jurkat T cells were treated with the compound.\nTH17 cell differentiation. For naïve T cell differentiation, CD4^+T cells were enriched by negative selection using a magnetic-activated cell sorter kit (Millipore). Enriched CD4+ T cells activated with 5 μg/mL of plate-abound anti CD3 antibody and 1 μg/mL of anti-CD28 antibody in the presence of 20 μg/mL of anti-IFNγ, 20 μg/mL of anti-IL-4, 1 ng/mL of TGFβ, AND 10 ng/mL of IL-6. Four-five days post differentiation, all cells were stimulated for 5 hr with 5 ng/mL of phorbol-12-myristate-13-acetate (Sigma) and 500 ng/mL of ionomycin (Sigma) contained with brefeldin A solution (eBioscience)."}, "RORγt LBD": {"target": "T1, RORγt LBD (Homo sapiens, UniProt P51449)", "T1 construct": "5 μL of a 10 μM RORγt LBD solution (Apo or in complex with 10-excess compound)", "T1 sequence (P51449 269-508 limits assumed)": "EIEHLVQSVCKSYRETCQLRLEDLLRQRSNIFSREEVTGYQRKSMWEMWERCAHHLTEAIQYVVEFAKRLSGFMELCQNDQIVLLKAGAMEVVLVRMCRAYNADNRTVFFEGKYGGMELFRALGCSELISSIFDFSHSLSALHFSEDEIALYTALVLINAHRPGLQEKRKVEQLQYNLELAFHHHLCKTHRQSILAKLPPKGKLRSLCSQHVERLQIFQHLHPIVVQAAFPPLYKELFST", "assay": "Differential HDX-MS of RORγt LBD ± compounds", "assay_type": "binding", "description": "While the mechanism of action of RORγt agonists on regulation of the immune checkpoint receptor PD-1 is unclear, a correlation between RORγt and PD-1 expression has been observed in PD-1 knockout mice Z Regardless, to gain insights into the structural mechanism for agonist activity we examined the impact of putative agonist ligands on the conformational dynamics of RORγt. To achieve this, we utilized differential hydrogen/deuterium exchange (HDX) mass spectrometry.\nHDX-MS. Solution-phase amide HDX was performed with a fully automated system as described previously with minor modifications^30,31. For differential HDX experiments, 5 μL of a 10 μM RORγt LBD solution (Apo or in complex with 10-excess compound) was diluted to 25 μL with D20-containing HDX buffer, and incubated at 4° C. for; 10 s, 30s, 60s, 900s, and 3,600s, Following on-exchange, unwanted forward or back exchange is minimized and the protein is denatured by dilution to 50 μL with 0.1% TFA in 3M urea (held at 4° C., pH 2.5). Samples are then passed across an immobilized pepsin column (prepared in house) at 50 μL min−1 (0.1% TFA, 15° C.) and the resulting peptides are trapped onto a Ce trap cartridge (Thermo Fisher, Hypersil Gold). Peptides were then gradient eluted (4% CH3CN to 40% CH3CN, 0,3% formic acid over 5 minutes, 4° C.) across a 1 mm×50 mm Cia HPLC column (Hypersil Gold, Thermo Fisher) and electrosprayed directly into a high resolution orbitrap mass spectrometer (Exactive, Thermo Fisher). Percent deuterium exchange values for peptide isotopic envelopes at each time point were calculated and processed using HDX Workbench^32 and overlaid onto RORγt crystal structures using pyMOL (DeLano Scientific). HDX data is presented as an average of three individual replicates across […] time points (10s, 60s, 300s, 900s, and 3600s)."}, "Gal4-RORγ [2]": {"target": "T2, Gal4-RORγ (Homo sapiens, UniProt P51449)", "T2 sequence (P51449 269-508 limits assumed)": "T1 sequence (P51449 269-508 limits assumed)", "conditions": "30 μM, 2 μM ursolic acid"}, "Gal4-RORγ [3]": {"target": "T2, Gal4-RORγ", "set-up": "RORγt activity after pre-treatment; fold induction of reporter gene expression; other: single concentration 30 μM; induction of luciferase expression at highest concentration of the concentration response curve; other: 30 μM, 2 μM urs; luciferase reporter gene expression", "conditions": "recently identified putative endogenous agonist; cited from earlier work"}, "EL4 cells": {"tested_on": "EL4 cells", "assay": "PD-1 surface expression in EL4 cells by flow cytometry", "assay_type": "cell-based, murine", "conditions": "compound 48 hr", "experimental": "as §1\nGene expression and Cell sorting. Jurkat T cells were pre-incubated with compounds for 48 hr and activated with phorbol 12-myristate 13-acetate (PMA, 50 ng/mL; Sigma) and ionomycin (1 μg/mL; Sigma) for 5 hr. For qPCR, mRNA was isolated with an RNeasy midi kit using DNase I (Qiagen), and cDNA was synthesized with high capacity cDNA Reverse Transcription kit (Applied Biosystems). IL17A, PD-1, and granzyme B gene expression were normalized to the expression of GAPDH. The sequence of primers used in this study are found in Table 2. For cell sorting, activated Jurkat T cells were stained with APC conjugated anti-human PD-1 antibody (eBioscience). […]"}}, "note": "Marks after values point to notes of the source that are not given here."}
{"smiles": "CC(C)=CCC[C@@H](C)[C@H]1CC[C@H]2[C@@H]3CC=C4C[C@@H](O)CC[C@]4(C)[C@H]3CC[C@]12C", "note": "[desmosterol]", "values": [{"measurement": "IL17 production (intracellular staining of IL17A)", "setting": "[1]", "value": "trend towards increased IL17 production"}, {"measurement": "surface PD-1 expression", "setting": "[1]", "value": "no effect"}, {"measurement": "Differential HDX kinetics, peptide TEIEHLVQSVC", "setting": "RORγt LBD; 268-278, charge 2, H1", "value": "−1(4)*"}, {"measurement": "Differential HDX kinetics, peptide TEIEHLVQSVCXS", "setting": "RORγt LBD; 268-280, charge 3, H1", "value": "0(5)*"}, {"measurement": "Differential HDX kinetics, peptide TEIEHLVQSVCKSYRETCQ", "setting": "RORγt LBD; 268-286, charge 2, H1", "value": "−5(3)"}, {"measurement": "Differential HDX kinetics, peptide LRLEDL", "setting": "RORγt LBD; 287-292, charge 2, H2", "value": "−5(4)*"}, {"measurement": "Differential HDX kinetics, peptide RLEDLL", "setting": "RORγt LBD; 288-293, charge 2, H2", "value": "−6(3)"}, {"measurement": "Differential HDX kinetics, peptide RLEDLLRQRSNIFSRE", "setting": "RORγt LBD; 288-303, charge 4, H2/H3", "value": "−10(4)"}, {"measurement": "Differential HDX kinetics, peptide WERCAHHLTEAIQ", "setting": "RORγt LBD; 317-329, charge 2, H4", "value": "−5(1)*"}, {"measurement": "Differential HDX kinetics, peptide WERCAHHTEAIQY", "setting": "RORγt LBD; 317-330, charge 3, H4", "value": "−4(1)*"}, {"measurement": "Differential HDX kinetics, peptide WEGAKRLSGF", "setting": "RORγt LBD; 331-341, charge 2, H4/H5", "value": "−1(1)*"}, {"measurement": "Differential HDX kinetics, peptide AKRLSGF", "setting": "RORγt LBD; 335-341, charge 2, H4/H5", "value": "−1(2)*"}, {"measurement": "Differential HDX kinetics, peptide CQNDQVL", "setting": "RORγt LBD; 345-352, charge 1, H5/H6", "value": "0(1)*"}, {"measurement": "Differential HDX kinetics, peptide VRMCRAYNAENRTVF", "setting": "RORγt LBD; 363-377, charge 3, H6/B1", "value": "−7(2)"}, {"measurement": "Differential HDX kinetics, peptide CRAYCAONRTVF", "setting": "RORγt LBD; 366-377, charge 2, B1", "value": "−5(2)"}, {"measurement": "Differential HDX kinetics, peptide FEGKYGGMEL", "setting": "RORγt LBD; 373-387, charge 2, B2/H7", "value": "−6(3)"}, {"measurement": "Differential HDX kinetics, peptide FRALGCSE", "setting": "RORγt LBD; 386-398, charge 2, H7/H8", "value": "−4(3)*"}, {"measurement": "Differential HDX kinetics, peptide LISSIFDFSHSLSAL", "setting": "RORγt LBD; 395-410, charge 2, H8", "value": "−4(2)*"}, {"measurement": "Differential HDX kinetics, peptide ISSIFD", "setting": "RORγt LBD; 397-402, charge 1, H8", "value": "−4(2)*"}, {"measurement": "Differential HDX kinetics, peptide ISSIFDFSHSL", "setting": "RORγt LBD; 397-407, charge 2, H8", "value": "−4(2)*"}, {"measurement": "Differential HDX kinetics, peptide ISSIFDSHSLSAL", "setting": "RORγt LBD; 397-410, charge 2, H8", "value": "−4(2)*"}, {"measurement": "Differential HDX kinetics, peptide DFSHSLSAL", "setting": "RORγt LBD; 402-410, charge 1, H8", "value": "−5(3)"}, {"measurement": "Differential HDX kinetics, peptide FSHSLSAL", "setting": "RORγt LBD; 403-410, charge 2, H8", "value": "−4(3)*"}, {"measurement": "Differential HDX kinetics, peptide HFSEDEIAL", "setting": "RORγt LBD; 411-419, charge 2, H9", "value": "−1(1)*"}, {"measurement": "Differential HDX kinetics, peptide LAFHHHLCKTHRQSL", "setting": "RORγt LBD; 448-463, charge 4, H10", "value": "−3(2)*"}, {"measurement": "Differential HDX kinetics, peptide AKLPFXGKLRSLCSQ", "setting": "RORγt LBD; 464-478, charge 3, H11", "value": "−12(4)"}, {"measurement": "Differential HDX kinetics, peptide HVERLQFQHLHPIVVQ", "setting": "RORγt LBD; 479-495, charge 2, H11", "value": "−12(4)"}, {"measurement": "Differential HDX kinetics, peptide QFQHLHPIVVQ", "setting": "RORγt LBD; 484-495, charge 2, H11", "value": "−6(4)*"}, {"measurement": "Differential HDX kinetics, peptide AAFPPLYXEL", "setting": "RORγt LBD; 495-505, charge 2, H12", "value": "−2(4)*"}, {"measurement": "Differential HDX kinetics, peptide AAFPPLYZELF", "setting": "RORγt LBD; 496-506, charge 2, H12", "value": "−3(3)*"}, {"measurement": "HDX kinetics in helix 12 (H12)", "setting": "RORγt LBD; RORγt LBD ± compound", "value": "No statistically significant change in HDX kinetics"}, {"measurement": "Differential HDX kinetics, peptide TEIEHLVQ", "setting": "RORγt LBD; charge 2, H1, percent deuterium exchange difference", "value": "−2(5)*"}, {"measurement": "induction of luciferase expression at highest concentration of the concentration response curve", "setting": "Gal4-RORγ [2]", "value": "~2", "unit": "fold"}, {"measurement": "restoring RORγt activity in the presence of ursolic acid", "setting": "Gal4-RORγ [3]", "value": "capable of restoring RORγt activity in the presence of ursolic acid"}, {"measurement": "surface expression of PD-1", "setting": "EL4 cells", "value": "no effect"}]}
